Measurements reported in patent publication US11419881B2, “Treatment of migraine” (priority 2019, dated 2022).
Read-outs that look alike come from different tables or passages of the source.

Key:
[1] = system: isolated human nasal chemosensory neurons; assay: Electrophysiology: inward currents in isolated human nasal chemosensory neurons; type: cell-based
[2] = system: nasal septal chemosensory mucosa; assay: Electrophysiology: depolarization of the nasal septal chemosensory mucosa; design: species or system human
[3] = system: estrogen receptors; assay: In vitro agonist/antagonist activity on estrogen receptors; type: biochemical
[4] = biological target: T1, androgen receptors (Homo sapiens, UniProt P10275); assay: In vitro agonist/antagonist activity on androgen receptors; type: biochemical
T1 sequence (P10275 1-920): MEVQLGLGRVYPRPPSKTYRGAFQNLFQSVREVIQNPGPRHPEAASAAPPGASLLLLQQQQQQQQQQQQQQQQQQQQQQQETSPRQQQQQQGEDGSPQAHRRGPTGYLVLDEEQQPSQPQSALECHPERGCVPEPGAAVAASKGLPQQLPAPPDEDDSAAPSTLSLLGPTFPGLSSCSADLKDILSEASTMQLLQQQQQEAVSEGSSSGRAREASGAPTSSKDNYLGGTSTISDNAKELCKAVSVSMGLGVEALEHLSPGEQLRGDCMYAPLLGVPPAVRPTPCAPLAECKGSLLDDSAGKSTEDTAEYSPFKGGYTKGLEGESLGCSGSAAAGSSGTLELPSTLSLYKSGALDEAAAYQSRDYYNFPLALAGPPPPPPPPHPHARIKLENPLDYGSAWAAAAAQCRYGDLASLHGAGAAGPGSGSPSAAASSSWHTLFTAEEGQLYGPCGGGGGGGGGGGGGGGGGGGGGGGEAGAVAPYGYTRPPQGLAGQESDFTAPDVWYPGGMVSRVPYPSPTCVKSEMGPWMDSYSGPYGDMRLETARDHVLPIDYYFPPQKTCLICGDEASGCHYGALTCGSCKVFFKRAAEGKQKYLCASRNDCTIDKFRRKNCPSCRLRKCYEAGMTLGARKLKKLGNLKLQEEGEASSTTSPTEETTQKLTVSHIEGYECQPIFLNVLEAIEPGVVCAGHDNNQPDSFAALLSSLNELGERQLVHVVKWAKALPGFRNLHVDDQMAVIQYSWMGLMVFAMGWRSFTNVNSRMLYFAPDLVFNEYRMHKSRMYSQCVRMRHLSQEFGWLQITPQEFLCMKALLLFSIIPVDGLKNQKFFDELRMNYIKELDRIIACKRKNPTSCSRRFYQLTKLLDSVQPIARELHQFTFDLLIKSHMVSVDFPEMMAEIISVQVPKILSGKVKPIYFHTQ

[5] = biological target: T2, progestin receptors (Homo sapiens, UniProt P06401); assay: In vitro agonist/antagonist activity on progestin receptors; type: biochemical
T2 sequence (P06401 1-933): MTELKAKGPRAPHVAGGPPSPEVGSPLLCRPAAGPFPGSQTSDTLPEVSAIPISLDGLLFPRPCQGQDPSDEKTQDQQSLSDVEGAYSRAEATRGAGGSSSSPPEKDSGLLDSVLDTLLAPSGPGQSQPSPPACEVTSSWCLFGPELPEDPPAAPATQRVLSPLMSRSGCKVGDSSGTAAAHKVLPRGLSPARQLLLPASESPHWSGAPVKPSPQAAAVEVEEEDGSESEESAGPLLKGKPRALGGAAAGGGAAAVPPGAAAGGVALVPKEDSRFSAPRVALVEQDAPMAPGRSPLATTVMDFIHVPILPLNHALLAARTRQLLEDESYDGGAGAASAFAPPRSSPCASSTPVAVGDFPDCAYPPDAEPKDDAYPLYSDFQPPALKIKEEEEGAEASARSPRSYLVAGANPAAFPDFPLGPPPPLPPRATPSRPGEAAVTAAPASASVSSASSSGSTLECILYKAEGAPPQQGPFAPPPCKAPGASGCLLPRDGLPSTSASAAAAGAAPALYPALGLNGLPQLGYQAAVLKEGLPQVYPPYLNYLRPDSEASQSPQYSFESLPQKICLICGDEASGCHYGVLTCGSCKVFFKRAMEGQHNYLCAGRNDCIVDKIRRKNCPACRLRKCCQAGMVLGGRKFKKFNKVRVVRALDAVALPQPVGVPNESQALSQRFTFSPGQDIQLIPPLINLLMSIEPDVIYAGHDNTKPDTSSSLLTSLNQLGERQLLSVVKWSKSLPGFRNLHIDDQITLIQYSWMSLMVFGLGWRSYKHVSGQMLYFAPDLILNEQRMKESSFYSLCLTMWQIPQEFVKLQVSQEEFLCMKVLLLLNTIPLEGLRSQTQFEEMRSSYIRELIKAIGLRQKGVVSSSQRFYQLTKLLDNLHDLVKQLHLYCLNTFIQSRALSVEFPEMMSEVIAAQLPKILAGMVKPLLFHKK

[6] = biological target: T3, glucocorticoid receptors (Homo sapiens, UniProt P04150); assay: In vitro agonist/antagonist activity on glucocorticoid receptors; type: biochemical
T3 sequence (P04150 1-777): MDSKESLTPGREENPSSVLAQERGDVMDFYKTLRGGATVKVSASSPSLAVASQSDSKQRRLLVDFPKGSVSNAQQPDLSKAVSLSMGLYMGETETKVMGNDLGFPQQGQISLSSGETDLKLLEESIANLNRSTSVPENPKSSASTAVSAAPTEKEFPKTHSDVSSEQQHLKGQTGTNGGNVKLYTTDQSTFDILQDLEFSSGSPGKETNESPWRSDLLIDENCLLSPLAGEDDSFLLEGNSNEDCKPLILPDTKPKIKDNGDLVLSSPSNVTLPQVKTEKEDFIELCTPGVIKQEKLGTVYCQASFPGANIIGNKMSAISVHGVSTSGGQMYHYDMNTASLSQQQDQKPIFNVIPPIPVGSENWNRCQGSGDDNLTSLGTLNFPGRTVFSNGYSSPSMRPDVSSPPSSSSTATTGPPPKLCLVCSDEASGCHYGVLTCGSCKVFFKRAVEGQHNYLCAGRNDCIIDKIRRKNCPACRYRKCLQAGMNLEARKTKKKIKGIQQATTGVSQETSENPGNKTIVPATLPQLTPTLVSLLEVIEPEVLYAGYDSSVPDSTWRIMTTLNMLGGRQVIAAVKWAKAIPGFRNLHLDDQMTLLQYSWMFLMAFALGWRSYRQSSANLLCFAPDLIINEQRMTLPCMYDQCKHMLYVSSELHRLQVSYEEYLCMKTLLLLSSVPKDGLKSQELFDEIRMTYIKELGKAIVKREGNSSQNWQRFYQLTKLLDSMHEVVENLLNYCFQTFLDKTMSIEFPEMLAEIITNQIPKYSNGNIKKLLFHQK

[7] = Acute and multidose (28 day) toxicity studies, nasal and intravenous; type: in vivo, rats, mice, rabbits and dogs
[8] = Ames reverse mutation assay
[9] = In vivo bone marrow micronucleus test
[10] = Reproductive toxicity studies in pregnant rabbits; type: in vivo; conditions: intravenous up to 2.5 mg/kg/day during organogenesis
[11] = Preclinical pharmacokinetic studies, nasal doses; type: in vivo; conditions: repeated or single escalating nasal doses up to 100 μg/rat, 400 μg/rabbit, 600 μg/dog
[12] = Preclinical pharmacokinetic studies, intravenous doses; type: in vivo, rats, rabbits, or dogs; conditions: single repeated intravenous doses up to 2.5 mg/kg
[13] = system: nasal chemosensory mucosa; assay: Electrogram from the nasal chemosensory mucosa of human volunteers; type: in vivo
Method: (§1) The half effective dose of this effect was 0.087 μg.

[14] = Reflex (autonomic) activity after nasal administration in human volunteers; type: in vivo; conditions: nasal 1.6 μg
Method: as §1

[15] = Nasal spray 0.5 μg versus vehicle in 14 women of reproductive age, physiologic parameters; type: in vivo, human; conditions: compared to vehicle
[16] = Nasal spray 1.6 μg in women of reproductive age, core body temperature and sympathoadrenergic tone; type: in vivo, human
Method: It also changed the tone of the sympathoadrenergic system (as assessed by measuring physiologic sinus arrhythmia) within 5 minutes of administration, and the effect persisted for 15 to 20 minutes.

[17] = type: in vivo, human
[18] = Hot flashes in menopausal women after nasal administration; type: in vivo, human
Text: 16α,17α-Epoxy-10β-hydroxyestr-4-en-3-one decreased parasympathetic system tone resulting in increased sympathetic activity and stimulation of β2 adrenergic receptors in the bronchiole smooth muscle that induced bronchodilation; (b) increased skin conductance amplitude is the result of increased skin secretions, which are produced by preponderance of the sympathetic nervous system tone (or decreased parasympathetic tone); (c) decreased body temperature is explained by increased activity of the posterior (adrenergic) hypothalamus and decreased parasympathetic tone (anterior hypothalamus).

[19] = in vivo
[20] = Exploratory single-blind study in chronic migraine subjects (HAM-A, HAM-D, VRS, resting state fMRI)
[21] = after single dose nasal administration
[22] = women with PMDD, nasal, versus placebo
[23] = migraine subjects, 6.4 μg nasal, relative to placebo

SMILES: C[C@]12CC[C@H]3[C@@H](CCC4=CC(=O)CC[C@@]43O)[C@@H]1C[C@H]1O[C@H]12 [16α,17α-epoxy-10β-hydroxyestr-4-en-3-one]
- inward currents in isolated human nasal chemosensory neurons ([1]; isolated neurons): induced inward currents
- concentration giving maximal response (amplitude) ([1]; response amplitude increased with concentration): 10^−7 to 10^−6 M
- depolarization of the nasal septal chemosensory mucosa [2]: electrotonic depolarization
- agonist or antagonist activity on estrogen receptors [3]: no agonist or antagonist activity
- agonist or antagonist activity on androgen receptors [4]: no agonist or antagonist activity
- agonist or antagonist activity on progestin receptors [5]: no agonist or antagonist activity
- agonist or antagonist activity on glucocorticoid receptors [6]: no agonist or antagonist activity
- deaths, adverse clinical signs, effects on laboratory or pathology parameters ([7]; same nasal and intravenous doses, all species): no deaths or adverse clinical signs or effects on laboratory or pathology parameters observed
- tolerability ([7]; single nasal up to 100 μg/rat, 400 μg/rabbit, 600 μg/dog, repeated nasal up to 50 μg/rat/day, 300 μg/dog/day, iv single and repeated up to 2.5 mg/kg, 28 day): well tolerated in all species tested
- mutagenic or clastogenic potential [8]: no evidence of mutagenic or clastogenic potential
- mutagenic or clastogenic potential [9]: no evidence of mutagenic or clastogenic potential
- effects on maternal or litter parameters [10]: no adverse effects on maternal or litter parameters
- systemic exposure [11]: very low systemic exposure
- plasma concentrations, dose dependence [12]: dose-proportional
- plasma concentrations, time course [12]: decreased rapidly
- half effective dose of electrogram activation ([13]; human volunteers of both sexes): 0.087 µg
- activation of the electrogram recorded from the nasal chemosensory mucosa ([13]; microgram quantities, volunteers of both sexes): concentration dependent activation
- body core temperature (external ear canal) [14]: decreased body core temperature
- cardiac rate [14]: no significant change
- depth of the inspiratory cycle of respiration [14]: significantly increased amplitude
- latency of modulation of reflex activity after the electrogram [14]: 5 to 10 s
- skeletal muscle tone (electromyogram, chin muscles) [14]: decreased skeletal muscle tone
- skin conductance (electrodermal activity) ([14]; palmar surface of fourth and fifth finger): increased amplitude of the skin conductance
- respiration rate ([14]; within physiologic range): decreased respiration rate
- cardiac frequency [15]: not statistically significant increase
- core body temperature [15]: statistically significant decreases
- galvanic skin reflex [15]: statistically significant decreases
- respiratory frequency [15]: statistically significant decreases
- skeletal muscle tone [15]: statistically significant decreases
- decrease in core body temperature [16]: 1±0.23 °C
- latency of decrease in core body temperature [16]: 0.5 to 4 min
- persistence of change of sympathoadrenergic tone [16]: 15 to 20 min
- persistence of decrease in core body temperature [16]: 9 ± 2.5 min
- time to change of sympathoadrenergic tone (physiologic sinus arrhythmia) [16]: ≤ 5 minutes
- persistence of improvements [17, 21]: approximately 5 hours
- time to appearance of improvements [17, 21]: ≤ 30 min
- serious adverse events ([17]; in vivo): No serious adverse events were reported
- side effects ([17]; in vivo): minimal and similar to administration of placebo
- cortical behavioral symptoms (headache, tension) [17, 22]: significant improvements
- hypothalamic behavioral symptoms (fatigue, anger, craving for foods) [17, 22]: significant improvements
- limbic system behavioral symptoms (mood swings, depression, lack of interest) [17, 22]: significant improvements
- number, severity and bother of hot flashes [18]: decreased number, severity and bother of hot flashes
- systemic exposure [19]: lack of systemic exposure
- functional connectivity of the amygdala with the anterior occipital lobe and right middle occipital lobe (fMRI) [20, 23]: increased functional connectivity
- functional connectivity of the hypothalamus with the anterior orbital gyrus, right medial orbital gyrus and pons (fMRI) [20, 23]: decreased functional connectivity
- functional connectivity of the right thalamus with left orbitofrontal cortex, superior parietal lobe, left insular cortex and left primary motor cortex (fMRI) [20, 23]: decreased functional connectivity
- functional connectivity of the right thalamus with the left somatosensory cortex (fMRI) [20, 23]: increased functional connectivity
- tolerability ([20]; single nasal 6.4 μg, all three subjects): tolerated
- mean decrease in headache pain intensity score (VRS, 6-point) relative to placebo ([20]; two migraine subjects, single nasal 6.4 μg, 15 minutes, p<0.01): 2.5
- anxiety scores (HAM-A) ([20]; two migraine subjects, single nasal 6.4 μg, p<0.01): significantly improved
- depression scores (HAM-D) ([20]; two migraine subjects, single nasal 6.4 μg, not statistically significant): improvement trend
